The values that follow come from patent US12351834B2, “Compositions and methods for the treatment of ornithine transcarbamylase deficiency” (Arcturus Therapeutics, Inc., priority 2020, dated 2025).

The nature of this data set: In vivo tissue lipid clearance in Balb/c mice. On the set-up: species or system mouse. The note with it: for half-life / concentration at 28 days / Tmax: Balb/c, mouse; for concentration at 28 days: 28 days post-dose; for ranking of lipid level by tissue / time post-dose by which lipid no longer detected in plasma: single IV bolus 1 mg/kg of the lipid formulation. The method, then:
Additional studies were conducted to evaluate the in vivo tissue clearance profile of Lipid #7 and Lipid #3 in Balb/c mice. The clearance profiles in mouse tissue and plasma can be found in FIG. 25 (for Lipid #7) and FIG. 26 (for Lipid #3). All animals received a single intravenous bolus treatment of 1 mg/kg of the Lipid #7 formulation at a dosing volume of 10 mL/kg. Plasma, liver, kidney, and spleen were collected from mice (n=3 mice per timepoint) at 0, 2, 15, 30 minutes; 1, 2, 4, 6, 8, 12, 24, 48 hours; and 5, 7, 21, 28 days post-dose. All samples were analyzed for Lipid #7 concentrations.
All animals received a single intravenous bolus treatment of 1 mg/kg of the Lipid #3 formulation at a dosing volume of 10 mL/kg. Plasma was collected from mice (n=3 per timepoint) at 0.25, 1, 2, 4, 6, 12, 24, 120, and 168 hours post-dose. Liver, kidney, and spleen were collected from mice (n=3 per timepoint) at 0.033, 0.25, 1, 2, 4, 6, 12, 24, 120, and 168 hours; 1, 2, 3, 4-weeks post-dose. Heart, brain and lungs were collected from mice (n=3 per timepoint) at 0.25 hours; 1, 2-weeks post-dose. Only samples from 0.25 hrs to 1-week post-dose were analyzed for Lipid #3 tissue concentrations.

The mark [1] stands for this setting: kidney, 1 mg/kg IV, read-out: half-life, kidney (converted).
Where [2] appears, read: liver, 1 mg/kg IV, read-out: half-life, liver (converted).
Where [3] appears, read: plasma, 1 mg/kg IV, read-out: half-life, plasma (converted).

Where two headings read alike, the source gives them in different places. Where only a bound is given, the exact number is not on record here.

One may read the half-life as how long it takes for the measured level to halve. Broadly, the Tmax is the time from dosing to the highest level.

As to `CCCCCCCC(CCCCCCC)OC(=O)CCCN(CCCC(=O)OC(CCCCCCC)CCCCCCC)C(=O)SCCCN(C)C` [Lipid #7], the “ranking of lipid level by tissue” value is “liver>spleen>plasma>kidney” and the “time post-dose by which lipid no longer detected in plasma” value is reported as at most 14 days. In addition, under setting [1], the half-life was 234 h. The concentration at 28 days (kidney, 1 mg/kg IV, read-out: lipid concentration in the kidney) was 2.34 ng/mL. Moreover, under setting [2], the half-life is 84 h. Under “liver, 1 mg/kg IV, read-out: lipid concentration in the liver”, the concentration at 28 days came to 17.2 ng/mL. Moreover, the half-life under setting [3] was 57 h. Moreover, the concentration at 28 days (spleen, 1 mg/kg IV, read-out: lipid concentration in the spleen) was 18.4 ng/mL.
For `CCCCCC/C=C\COC(=O)CCCCCN(CCCCCC(=O)OC(CCCCCCC)CCCCCCC)C(=O)SCCN(C)C` [Lipid #3], the “ranking of lipid level by tissue” value is “liver>plasma>spleen>kidney>lung>heart>brain” and the “time post-dose by which lipid no longer detected in plasma” value was at most 0.17 days. Further, the tissue clearance assessment entry (1 mg/kg IV) is on record as “rapid tissue clearance”. For the same compound, the “detection in brain tissue” value (1 mg/kg IV, either time point post-dose) is given as “not detected in brain tissue”. In addition, for the setting “1 mg/kg IV, close to LLOQ”, the “time post-dose through which concentrations persisted, all other tissues” value came to 120 h and the “time post-dose through which concentrations persisted, liver” value was 168 h. The Tmax (kidney, 1 mg/kg IV, read-out: Tmax, kidney) was in the range of 0.033 to 1 h. Also, under setting [1], the half-life is 19 h. For the setting “liver, 1 mg/kg IV, read-out: Tmax, liver”, the Tmax lay within 0.033 to 1 h. In addition, under setting [2], the half-life was 22 h. Moreover, the half-life under setting [3] was 0.45 h. Besides, the Tmax (spleen, 1 mg/kg IV, read-out: Tmax, spleen) was in the range of 1 to 2 h. For the same compound, the half-life (spleen, 1 mg/kg IV, read-out: half-life, spleen (converted)) was 24 h.
